Test results as given in the NIST ThermoML archive (doi:10.1016/j.jct.2013.04.015).
± gives the expanded uncertainty stated by the source.

Test: xn = mol fraction of the nth substance listed
Conditions: for surface tension liquid-gas: Wilhelmy plate method; for mass density: 101 kPa, Liquid, Vibrating tube method

O [water] + CCCCn1cc[n+](C)c1.C[C@H](O)C(=O)[O-]
surface tension liquid-gas (298.15 K, x2 = 0): 71.85 ± 0.78 mN/m
surface tension liquid-gas (308.15 K, x2 = 0): 70.48 ± 0.77 mN/m
mass density (308.15 K, x2 = 0): 994.1 ± 0.9 kg/m3
surface tension liquid-gas (318.15 K, x2 = 0): 68.89 ± 0.75 mN/m

CCCCn1cc[n+](C)c1.C[C@H](O)C(=O)[O-] [1-butyl-3-methylimidazolium L-lactate] + CCCCO
surface tension liquid-gas (298.15 K, x1 = 0.01): 24.18 ± 0.3 mN/m
surface tension liquid-gas (298.15 K, x1 = 0.0297): 24.53 ± 0.3 mN/m
surface tension liquid-gas (298.15 K, x1 = 0.0482): 24.7 ± 0.3 mN/m
surface tension liquid-gas (298.15 K, x1 = 0.0601): 24.83 ± 0.3 mN/m
surface tension liquid-gas (298.15 K, x1 = 0.0888): 25.1 ± 0.3 mN/m
surface tension liquid-gas (298.15 K, x1 = 0.1001): 25.17 ± 0.3 mN/m
surface tension liquid-gas (298.15 K, x1 = 0.1996): 26.2 ± 0.3 mN/m
surface tension liquid-gas (298.15 K, x1 = 0.3016): 27.25 ± 0.3 mN/m
surface tension liquid-gas (298.15 K, x1 = 0.4004): 28.42 ± 0.31 mN/m
surface tension liquid-gas (298.15 K, x1 = 0.4997): 29.67 ± 0.31 mN/m
surface tension liquid-gas (298.15 K, x1 = 0.5889): 31.11 ± 0.32 mN/m
surface tension liquid-gas (298.15 K, x1 = 0.6979): 32.64 ± 0.32 mN/m
surface tension liquid-gas (298.15 K, x1 = 0.8012): 34.73 ± 0.33 mN/m
surface tension liquid-gas (298.15 K, x1 = 0.8747): 36.6 ± 0.34 mN/m
surface tension liquid-gas (298.15 K, x1 = 1): 42.92 ± 0.37 mN/m
mass density (298.15 K, x1 = 0.0999): 875.7 ± 0.4 kg/m3
mass density (298.15 K, x1 = 0.1996): 927.3 ± 0.4 kg/m3
mass density (298.15 K, x1 = 0.303): 968.1 ± 0.4 kg/m3
mass density (298.15 K, x1 = 0.3998): 997.8 ± 0.4 kg/m3
mass density (298.15 K, x1 = 0.5): 1024.2 ± 0.4 kg/m3
mass density (298.15 K, x1 = 0.6002): 1044.6 ± 0.4 kg/m3
mass density (298.15 K, x1 = 0.7001): 1060.8 ± 0.4 kg/m3
mass density (298.15 K, x1 = 0.8): 1076.4 ± 0.4 kg/m3
mass density (298.15 K, x1 = 0.8999): 1091.8 ± 0.5 kg/m3
mass density (298.15 K, x1 = 1): 1111.2 ± 0.5 kg/m3
surface tension liquid-gas (308.15 K, x1 = 0.0101): 23.63 ± 0.3 mN/m
surface tension liquid-gas (308.15 K, x1 = 0.0295): 23.87 ± 0.3 mN/m
surface tension liquid-gas (308.15 K, x1 = 0.0495): 24.18 ± 0.3 mN/m
surface tension liquid-gas (308.15 K, x1 = 0.0604): 24.22 ± 0.3 mN/m
surface tension liquid-gas (308.15 K, x1 = 0.0884): 24.59 ± 0.3 mN/m
surface tension liquid-gas (308.15 K, x1 = 0.0999): 24.67 ± 0.3 mN/m
surface tension liquid-gas (308.15 K, x1 = 0.1999): 25.68 ± 0.3 mN/m
surface tension liquid-gas (308.15 K, x1 = 0.3008): 26.81 ± 0.3 mN/m
surface tension liquid-gas (308.15 K, x1 = 0.3994): 28.18 ± 0.31 mN/m
surface tension liquid-gas (308.15 K, x1 = 0.4989): 29.41 ± 0.31 mN/m
surface tension liquid-gas (308.15 K, x1 = 0.5877): 30.83 ± 0.32 mN/m
surface tension liquid-gas (308.15 K, x1 = 0.695): 32.5 ± 0.32 mN/m
surface tension liquid-gas (308.15 K, x1 = 0.7981): 34.33 ± 0.33 mN/m
surface tension liquid-gas (308.15 K, x1 = 0.8807): 36.48 ± 0.34 mN/m
surface tension liquid-gas (308.15 K, x1 = 1): 42.37 ± 0.37 mN/m
mass density (308.15 K, x1 = 0.0999): 868.3 ± 0.4 kg/m3
mass density (308.15 K, x1 = 0.1996): 920.3 ± 0.4 kg/m3
mass density (308.15 K, x1 = 0.303): 960.8 ± 0.4 kg/m3
mass density (308.15 K, x1 = 0.3998): 990.5 ± 0.4 kg/m3
mass density (308.15 K, x1 = 0.5): 1017.2 ± 0.4 kg/m3
mass density (308.15 K, x1 = 0.6002): 1037.4 ± 0.4 kg/m3
mass density (308.15 K, x1 = 0.7001): 1053.9 ± 0.4 kg/m3
mass density (308.15 K, x1 = 0.8): 1069 ± 0.4 kg/m3
mass density (308.15 K, x1 = 0.8999): 1084.2 ± 0.5 kg/m3
mass density (308.15 K, x1 = 1): 1104.2 ± 0.5 kg/m3
surface tension liquid-gas (318.15 K, x1 = 0.0101): 23.08 ± 0.3 mN/m
surface tension liquid-gas (318.15 K, x1 = 0.0296): 23.25 ± 0.3 mN/m
surface tension liquid-gas (318.15 K, x1 = 0.0485): 23.59 ± 0.3 mN/m
surface tension liquid-gas (318.15 K, x1 = 0.061): 23.71 ± 0.3 mN/m
surface tension liquid-gas (318.15 K, x1 = 0.0903): 23.93 ± 0.3 mN/m
surface tension liquid-gas (318.15 K, x1 = 0.1004): 24.17 ± 0.3 mN/m
surface tension liquid-gas (318.15 K, x1 = 0.2004): 25.18 ± 0.3 mN/m
surface tension liquid-gas (318.15 K, x1 = 0.3011): 26.53 ± 0.3 mN/m
surface tension liquid-gas (318.15 K, x1 = 0.3986): 28 ± 0.31 mN/m
surface tension liquid-gas (318.15 K, x1 = 0.4989): 29.33 ± 0.31 mN/m
surface tension liquid-gas (318.15 K, x1 = 0.59): 30.68 ± 0.32 mN/m
surface tension liquid-gas (318.15 K, x1 = 0.688): 32.24 ± 0.32 mN/m
surface tension liquid-gas (318.15 K, x1 = 0.7993): 34.23 ± 0.33 mN/m
surface tension liquid-gas (318.15 K, x1 = 0.8735): 36.03 ± 0.34 mN/m
surface tension liquid-gas (318.15 K, x1 = 1): 42.01 ± 0.37 mN/m
mass density (318.15 K, x1 = 0.0999): 859.6 ± 0.4 kg/m3
mass density (318.15 K, x1 = 0.1996): 913 ± 0.4 kg/m3
mass density (318.15 K, x1 = 0.303): 953.9 ± 0.4 kg/m3
mass density (318.15 K, x1 = 0.3998): 983.4 ± 0.4 kg/m3
mass density (318.15 K, x1 = 0.5): 1010.1 ± 0.4 kg/m3
mass density (318.15 K, x1 = 0.6002): 1030.9 ± 0.4 kg/m3
mass density (318.15 K, x1 = 0.7001): 1047.5 ± 0.4 kg/m3
mass density (318.15 K, x1 = 0.8): 1062 ± 0.4 kg/m3
mass density (318.15 K, x1 = 0.8999): 1077.3 ± 0.5 kg/m3
mass density (318.15 K, x1 = 1): 1097.7 ± 0.5 kg/m3
